Data on two compounds can be found in publication PMC2898741 (Biochemistry, 2009).

For assay [1], the target named is T1, riboflavin binding protein (RfBP) (Gallus gallus, UniProt P02752).
T1 sequence (P02752 18-238): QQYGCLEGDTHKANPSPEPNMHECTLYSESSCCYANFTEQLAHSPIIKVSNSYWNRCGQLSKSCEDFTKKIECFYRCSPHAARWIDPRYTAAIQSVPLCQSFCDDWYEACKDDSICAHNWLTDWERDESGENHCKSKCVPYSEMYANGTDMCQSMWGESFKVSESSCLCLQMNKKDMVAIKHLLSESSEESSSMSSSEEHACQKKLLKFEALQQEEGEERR

The target of the next assay is T2, ribonuclease A (RNase) (Bos taurus, UniProt P61823).
T2 sequence (P61823 27-150): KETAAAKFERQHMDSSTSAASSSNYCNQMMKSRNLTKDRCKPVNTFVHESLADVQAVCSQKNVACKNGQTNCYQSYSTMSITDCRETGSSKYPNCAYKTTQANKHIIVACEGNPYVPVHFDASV
Type of assay: binding.

Assay [2] deals with T1, riboflavin binding protein (RfBP). This is another data set of the same source.

For the compound `C[As](O)O` [MMA], the “absorbance and fluorescence titration; stopped-flow; DTNB protection” value in assay [1] was “PSAO and MMA bind almost quantitatively to reduced unfolded RfBP”. Turning to `O[As](O)O` [arsenite], the “absorbance and fluorescence titration; DTNB protection” value at ribonuclease A (RNase) is “Figure 7A demonstrates the binding of arsenite to reduced bovine pancreatic RNase using absorbance and fluorescence quenching”. In addition, in assay [2], the “absorbance (252 nm) and fluorescence titration; DTNB protection” value was “PSAO and arsenite also bind to reduced RfBP with a strong fluorescence quenching”.
